This note sets out measurements from ChEMBL document CHEMBL1153042, “Fatty acid amide hydrolase inhibitors. Surprising selectivity of chiral azetidine ureas” (Bioorg Med Chem Lett, 2009).

As a reminder, the Ki is a measure of affinity in units of concentration, obtained from inhibition or displacement. The low end stands for higher affinity, the high end for lower affinity. One may read the IC50 as the midpoint of a concentration-inhibition curve.

One experiment has as its target Cannabinoid receptor 1 (Homo sapiens, UniProt P21554). Kind of experiment: Displacement of [3H]SR141716A from human CB1 receptor. A general note: Loss of bound radioactivity is the signal in a displacement assay; it reports binding, not function.
Experiment [1] has as its target T1, Fatty-acid amide hydrolase 1 (Homo sapiens, UniProt O00519).
T1 sequence (O00519 whole entry): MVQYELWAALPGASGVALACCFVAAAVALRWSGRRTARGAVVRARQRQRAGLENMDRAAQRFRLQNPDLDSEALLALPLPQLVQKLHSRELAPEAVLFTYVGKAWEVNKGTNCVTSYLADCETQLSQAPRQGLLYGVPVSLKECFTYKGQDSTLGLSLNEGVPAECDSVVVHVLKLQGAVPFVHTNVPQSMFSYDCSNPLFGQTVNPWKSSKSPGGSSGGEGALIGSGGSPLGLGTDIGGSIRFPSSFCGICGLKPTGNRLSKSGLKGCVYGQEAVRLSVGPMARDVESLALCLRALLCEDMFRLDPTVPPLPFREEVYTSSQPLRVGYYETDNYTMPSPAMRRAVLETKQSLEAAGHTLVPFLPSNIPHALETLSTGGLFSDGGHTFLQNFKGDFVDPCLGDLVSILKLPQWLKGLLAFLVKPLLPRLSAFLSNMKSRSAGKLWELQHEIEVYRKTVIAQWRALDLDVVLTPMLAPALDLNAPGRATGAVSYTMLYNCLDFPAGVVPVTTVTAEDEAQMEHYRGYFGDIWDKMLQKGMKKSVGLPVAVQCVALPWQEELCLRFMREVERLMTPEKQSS
Kind of experiment: Inhibition of human FAAH incubated 1 hr prior to addition of arachidonyl-amino-methyl-coumarin amide.

Experiment [2] addresses T2, Fatty-acid amide hydrolase 1 (Rattus norvegicus, UniProt P97612).
T2 sequence (P97612 whole entry): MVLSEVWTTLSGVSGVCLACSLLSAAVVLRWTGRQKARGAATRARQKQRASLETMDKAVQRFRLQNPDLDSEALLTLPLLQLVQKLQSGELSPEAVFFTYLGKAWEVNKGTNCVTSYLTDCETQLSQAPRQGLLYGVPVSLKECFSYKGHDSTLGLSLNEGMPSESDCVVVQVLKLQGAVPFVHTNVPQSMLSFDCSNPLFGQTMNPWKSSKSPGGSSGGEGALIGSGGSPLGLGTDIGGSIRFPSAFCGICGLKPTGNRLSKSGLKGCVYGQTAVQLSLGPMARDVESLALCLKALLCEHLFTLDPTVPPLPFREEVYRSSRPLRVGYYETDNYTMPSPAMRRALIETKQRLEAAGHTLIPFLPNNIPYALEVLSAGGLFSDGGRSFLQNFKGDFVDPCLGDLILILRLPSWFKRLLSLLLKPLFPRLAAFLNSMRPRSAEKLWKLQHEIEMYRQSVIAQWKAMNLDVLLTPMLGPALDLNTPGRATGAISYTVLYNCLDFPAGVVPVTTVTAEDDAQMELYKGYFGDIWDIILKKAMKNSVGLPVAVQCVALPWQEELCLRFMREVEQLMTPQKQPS
As to the kind of experiment: Inhibition of rat FAAH incubated 3 hrs prior to addition of arachidonyl-amino-methyl-coumarin amide.

The target of experiment [3] is T1, Fatty-acid amide hydrolase 1. As to the kind of experiment: Inhibition of human FAAH incubated 3 hrs prior to addition of arachidonyl-amino-methyl-coumarin amide.
For another experiment, the target named is Cannabinoid receptor 2 (Homo sapiens, UniProt P34972). As to the kind of experiment: Displacement of [3H]CP-55940 from human CB2 receptor.
Cannabinoid receptor 2, sequence (P34972 whole entry): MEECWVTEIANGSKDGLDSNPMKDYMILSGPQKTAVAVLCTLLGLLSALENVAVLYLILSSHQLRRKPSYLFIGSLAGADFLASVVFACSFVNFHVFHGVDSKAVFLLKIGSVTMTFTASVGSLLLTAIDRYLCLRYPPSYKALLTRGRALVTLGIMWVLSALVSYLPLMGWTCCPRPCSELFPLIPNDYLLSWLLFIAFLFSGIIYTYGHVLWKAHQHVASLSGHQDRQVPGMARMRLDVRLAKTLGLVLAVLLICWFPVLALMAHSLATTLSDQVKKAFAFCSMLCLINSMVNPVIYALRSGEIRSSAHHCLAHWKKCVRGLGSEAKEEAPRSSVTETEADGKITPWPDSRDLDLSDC
The target of experiment [4] is T2, Fatty-acid amide hydrolase 1. As to the kind of experiment: Inhibition of rat FAAH incubated 1 hr prior to addition of arachidonyl-amino-methyl-coumarin amide.

Cannabinoid receptor 1, sequence (P21554 whole entry): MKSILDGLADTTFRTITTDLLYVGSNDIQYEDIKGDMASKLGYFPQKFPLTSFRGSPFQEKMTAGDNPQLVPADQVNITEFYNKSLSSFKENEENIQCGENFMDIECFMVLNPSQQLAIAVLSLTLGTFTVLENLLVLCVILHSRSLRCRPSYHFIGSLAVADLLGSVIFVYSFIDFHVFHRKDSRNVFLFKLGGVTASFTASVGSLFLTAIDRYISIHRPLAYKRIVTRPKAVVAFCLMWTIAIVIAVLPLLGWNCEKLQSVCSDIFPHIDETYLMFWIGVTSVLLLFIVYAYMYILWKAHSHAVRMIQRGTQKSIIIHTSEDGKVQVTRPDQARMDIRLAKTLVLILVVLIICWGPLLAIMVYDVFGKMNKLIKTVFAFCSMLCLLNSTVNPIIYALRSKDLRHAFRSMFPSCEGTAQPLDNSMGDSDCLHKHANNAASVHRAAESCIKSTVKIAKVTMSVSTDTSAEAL

As to `O=C(N1CCCCC1)N1CC(O[C@@H](c2ccc(Cl)cc2)c2cccnc2Cl)C1`, the Ki at Cannabinoid receptor 1 amounted to 560 nM; at Cannabinoid receptor 2, 7190 nM. Besides, the half-inhibitory concentration (IC50) in experiment [1] is 140 nM; in experiment [2] it was 531 nM; in experiment [3], 78 nM; in experiment [4], 1030 nM.

Regarding `O=C(N1CCCCC1)N1CC(O[C@H](c2ccc(Cl)cc2)c2cccnc2Cl)C1`, the Ki is < 10 nM at Cannabinoid receptor 1 and 10900 nM on Cannabinoid receptor 2. The 50% inhibitory concentration (IC50) in experiment [1], in experiment [2], in experiment [3] and in experiment [4] was > 10000 nM in each case.

With `O=C(N1CCCCC1)N1CC(OC(c2ccc(Cl)cc2)c2cccnc2Cl)C1` (racemic), on Cannabinoid receptor 1, the Ki was < 10 nM. In addition, the concentration for half-maximal inhibition (IC50) in experiment [1] amounted to 291 nM; in experiment [3], 188 nM.
